In ChEMBL document CHEMBL3880411, “Multikinase inhibitors for use in the treatment of cancer” (2009) one finds IC50 and Activity data, which are given here for one molecule.

Assay [1] in a line: Cytotoxicity against human AU565 cells assessed as reduction in cell viability after 96 hrs by CellTiter-Glo luminescence assay or methylene blue assay. Format: functional, cell-based. Conditions: AU565, 96 h.
A short description of assay [2]: Antiproliferative activity against human HL60 cells after 96 hrs by MTT assay. It is filed as functional, cell-based. Conditions: HL-60, 96 h. (In general: Tetrazolium assays rely on reduction of a dye to a coloured formazan, in cell work by metabolically active cells.)
For assay [3], the target named is Tyrosine-protein kinase Fyn (Homo sapiens) (UniProt P06241). Nature of the assay: Inhibition of human Fyn assessed as remaining activity at 0.1 uM after 40 mins in presence of [gamma33P-ATP] by scintillation counting.
Tyrosine-protein kinase Fyn (Homo sapiens), sequence (P06241 2-537 limits assumed): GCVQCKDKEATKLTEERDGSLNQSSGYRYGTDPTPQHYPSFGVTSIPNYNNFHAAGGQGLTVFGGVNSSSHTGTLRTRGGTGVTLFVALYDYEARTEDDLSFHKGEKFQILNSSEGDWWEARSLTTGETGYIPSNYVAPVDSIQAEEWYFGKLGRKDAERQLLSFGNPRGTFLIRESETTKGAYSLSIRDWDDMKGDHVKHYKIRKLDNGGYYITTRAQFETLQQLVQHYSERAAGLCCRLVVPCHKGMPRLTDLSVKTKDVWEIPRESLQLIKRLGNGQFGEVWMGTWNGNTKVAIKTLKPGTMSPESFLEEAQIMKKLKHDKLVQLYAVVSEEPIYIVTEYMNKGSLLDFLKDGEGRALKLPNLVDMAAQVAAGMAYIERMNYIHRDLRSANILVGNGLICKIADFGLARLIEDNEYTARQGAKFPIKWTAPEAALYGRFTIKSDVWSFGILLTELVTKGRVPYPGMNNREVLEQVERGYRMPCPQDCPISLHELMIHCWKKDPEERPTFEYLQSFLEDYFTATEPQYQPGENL
For assay [4], the target named is Tyrosine-protein kinase Lyn (Homo sapiens) (UniProt P07948). Briefly: Inhibition of human Lyn assessed as remaining activity at 1 uM after 40 mins in presence of [gamma33P-ATP] by scintillation counting.
Tyrosine-protein kinase Lyn (Homo sapiens), sequence (P07948 2-512 limits assumed): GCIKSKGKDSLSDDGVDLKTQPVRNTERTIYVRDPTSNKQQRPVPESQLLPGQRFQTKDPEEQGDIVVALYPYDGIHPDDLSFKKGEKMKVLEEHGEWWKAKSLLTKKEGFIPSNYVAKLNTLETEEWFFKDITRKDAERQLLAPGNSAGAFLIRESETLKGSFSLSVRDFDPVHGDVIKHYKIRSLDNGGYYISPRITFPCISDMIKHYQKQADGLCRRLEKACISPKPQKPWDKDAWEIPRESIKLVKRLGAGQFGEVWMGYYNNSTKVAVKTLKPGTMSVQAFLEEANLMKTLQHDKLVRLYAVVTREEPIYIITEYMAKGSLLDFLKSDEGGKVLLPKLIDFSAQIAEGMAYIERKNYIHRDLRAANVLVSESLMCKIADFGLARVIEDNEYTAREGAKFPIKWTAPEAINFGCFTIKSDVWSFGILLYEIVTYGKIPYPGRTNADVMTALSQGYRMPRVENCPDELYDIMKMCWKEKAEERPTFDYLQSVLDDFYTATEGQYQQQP
Assay [5] has the same target. Briefly: Inhibition of human Lyn assessed as remaining activity at 0.1 uM after 40 mins in presence of [gamma33P-ATP] by scintillation counting.
For assay [6], the target named is Tyrosine-protein kinase Lck (Homo sapiens) (UniProt P06239). Nature of the assay: Inhibition of human Lck assessed as remaining activity at 1 uM after 40 mins in presence of [gamma33P-ATP] by scintillation counting.
Tyrosine-protein kinase Lck (Homo sapiens), sequence (P06239 2-509 limits assumed): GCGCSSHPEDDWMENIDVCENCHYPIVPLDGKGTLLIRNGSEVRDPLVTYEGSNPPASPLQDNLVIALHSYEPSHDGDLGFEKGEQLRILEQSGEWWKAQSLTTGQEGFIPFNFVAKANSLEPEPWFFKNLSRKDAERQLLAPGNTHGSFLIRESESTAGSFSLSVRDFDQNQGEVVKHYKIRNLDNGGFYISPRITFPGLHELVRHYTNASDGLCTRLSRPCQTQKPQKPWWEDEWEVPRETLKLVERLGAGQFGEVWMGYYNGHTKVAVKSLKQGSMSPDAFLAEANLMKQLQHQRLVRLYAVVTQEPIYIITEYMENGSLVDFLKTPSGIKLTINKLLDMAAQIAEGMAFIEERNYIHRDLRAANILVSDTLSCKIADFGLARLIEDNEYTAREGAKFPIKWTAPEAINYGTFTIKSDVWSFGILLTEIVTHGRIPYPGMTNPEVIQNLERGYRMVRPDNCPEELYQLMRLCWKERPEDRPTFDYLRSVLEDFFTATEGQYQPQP
Assay [7] in a line: Cytotoxicity against human HCT116 cells expressing K-ras G13D mutant assessed as reduction in cell viability after 96 hrs by CellTiter-Glo luminescence assay or methylene blue assay. Conditions: HCT-116, 96 h. It is filed as functional, cell-based. On the technique in general: ATP-based viability assays read luminescence as a measure of living cells.
Assay [8] deals with Tyrosine-protein kinase Yes (Homo sapiens) (UniProt P07947). Briefly: Inhibition of human Yes assessed as remaining activity at 0.1 uM after 40 mins in presence of [gamma33P-ATP] by scintillation counting.
Tyrosine-protein kinase Yes (Homo sapiens), sequence (P07947 2-543 limits assumed): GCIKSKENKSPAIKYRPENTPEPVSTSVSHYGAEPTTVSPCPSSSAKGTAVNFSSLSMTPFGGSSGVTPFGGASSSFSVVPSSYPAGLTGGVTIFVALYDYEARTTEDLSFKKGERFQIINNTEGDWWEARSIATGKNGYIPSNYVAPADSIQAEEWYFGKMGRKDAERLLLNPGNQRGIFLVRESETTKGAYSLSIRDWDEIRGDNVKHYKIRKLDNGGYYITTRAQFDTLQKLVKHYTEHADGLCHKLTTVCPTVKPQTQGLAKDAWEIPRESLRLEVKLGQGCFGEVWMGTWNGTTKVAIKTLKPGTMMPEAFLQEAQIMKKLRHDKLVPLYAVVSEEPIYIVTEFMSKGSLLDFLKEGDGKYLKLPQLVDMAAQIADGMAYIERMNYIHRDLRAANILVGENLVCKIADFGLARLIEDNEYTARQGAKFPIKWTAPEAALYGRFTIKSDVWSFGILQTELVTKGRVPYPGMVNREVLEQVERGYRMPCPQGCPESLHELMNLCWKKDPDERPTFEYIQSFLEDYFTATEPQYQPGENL
For assay [9] the target is unchanged. Briefly: Inhibition of human Yes assessed as remaining activity at 1 uM after 40 mins in presence of [gamma33P-ATP] by scintillation counting.
The nature of assay [10]: Cytotoxicity against human MDA-MB-231 cells expressing K-ras G13D mutant assessed as reduction in cell viability after 96 hrs by CellTiter-Glo luminescence assay or methylene blue assay. Format: functional, cell-based. Conditions: MDA-MB-231, 96 h.

For orientation: IC50 means the point on the concentration scale where inhibition reaches its midpoint. Consider `CCNc1cc(O)c2c(c1)/C=C/C[C@H](O)[C@H](O)C(=O)/C=C\[C@@H](C)[C@H](C)OC2=O` [E-6201], for which the half-maximal inhibitory concentration (IC50) in assay [1] is more than 10000 nM; in assay [2], 60 nM; in assay [7], 423 nM; in assay [10], 156 nM. For the same molecule, the Activity in assay [3] amounted to 24%; in [4] it was 2%; in assay [5] it was 45%; in assay [6] it was 0%; in [8], 54%; in assay [9], 8%.
